Source: patent US20130190289A1, “COMPOUNDS AND METHODS FOR THE TREATMENT OR PREVENTION OF FLAVIVIRUS INFECTIONS” (priority 2010, published 2013)
pIC50: −log10 of the molar value. Where two headings read alike, the source gives them in different places.

Key:
[1] = system: HCV sub-genomic replicon of genotype 1a in replicon cell line W11.8; experiment: microbe, parasite or virus in culture; type: cell-based, HCV genotype 1a; conditions: Hepatitis C virus
Excerpt: This procedure below describes the HCV replicon assay using a Huh7 hepatoma cell line harboring a highly cell culture-adapted replicon (genotype 1b) (hereafter named cell line ET). The ET cells contained the highly cell culture-adapted replicon I389luc-ubi-neo/NS3-3′/5.1 construct that carried, in addition to the neomycin gene, an integrated copy to the firefly luciferase gene (Krieger, N; Lohmann, V; Bartenschlager, R. Enhancement of hepatitis C virus RNA replication by cell culture-adaptive mutations. J. Virol. 2001, 75, 4614-4624). A replicon cell line W11.8, containing the 1a genotype of HCV was also used. These two cell lines (genotype 1b and 1a) allowed measurement of RNA replication and translation by measuring luciferase activity (against genotype 1b) or by measuring the NS5A level using the ELISA assay (against genotype 1a). […] ET cell lines were maintained in cultures at a sub-confluent level (<85%). The culture media used for cell passaging consisted of DMEM (Gibco BRL Laboratories, Mississauga, ON, Canada) supplemented with 10% fetal bovine serum with 1% penicilin/streptomycin, 1% glutamine, 1% sodium pyruvate, 1% non-essential amino acids, and 180 µg/ml of G418 final concentration.
Replicon cell lines W11.8 containing a sub-genomic replicon of genotype 1a was used for the HCV Replicon Cell-Based detection using the ELISA. The RNA replication in presence of different drug concentrations was indirectly measured in these cell lines by the level of NS5A protein content upon drug treatment for four days. The NS5A is a non-structural protein of HCV and is used as marker of HCV replication in this assay.
For the treatment of the cells with the testing drug, Culture medium was removed from the 175 cm^2 T-flask by aspiration. Cell monolayer was rinsed with 10-20 mL of PBS 1× at room temperature. PBS was removed by aspiration. Cells were trypsinized using 3 mL of Trypsin (0.25%)/EDTA (0.1%) solution. Flasks were incubated at 37° C. (incubator) for 7 minutes. Complete medium (9 mL) without G418 is then added. Cell clumps were disrupted by pipetting up and down several times.
The cell suspension was then transferred to a 50 mL Falcon polypropylene tube. Cells were then counted several times using the haemocytometer. Cells were diluted at 50,000 cells/mL with complete DMEM without G418, then transferred into a sterile reservoir. Using a multichannel pipet, approximately 5,000 viable cells (100 μL) were plated per well in a white opaque 96-well microtiter plate. After an incubation period of 2-4 hours at 37° C. in a 5% CO2 incubator, compounds were added at various concentrations.
Drugs were resuspended in DMSO at a stock concentration of 100 mM or 10 mM. […] Then, drugs were diluted at twice the final concentration in the same medium (without G418) described earlier, in sterile 96-deep well plate and according to a particular template (see Appendix). One volume (100 μL) of each drug dilution was then added to each well that contains cells.
Sixteen wells were used as control (0% inhibition) without drug. Eight wells were used as background control (100% inhibition) containing 2 μM (final concentration) of the reference compound. […] Values from 100% inhibited wells were averaged and used as the background value. Cells are further incubated for 4 days at 37° C. in a 5% CO2 incubator.
For the measurement of NS5A protein content, following the incubation time of four days, the media was throwed into an appropriate waste container by inverting the plate. Any residual liquid was removed by tapping gently on absorbent paper several times. The plates were then washed once with 150 μL of PBS per well, and then incubated for 5 minutes at room temperature on a shaker (500 rpm).

[2] = system: HCV replicon (genotype 1b) in Huh7 cell line ET; experiment: microbe, parasite or virus in culture; type: cell-based, HCV genotype 1b; conditions: Hepatitis C virus
[3] = [3H]Thymidine incorporation assay (cell toxicity); conditions: human
[4] = W11.8, 96 h, read-out: HCV-Replicon-ELISA-1a IC50
[5] = Huh-7, 96 h, read-out: HCV-Replicon (Luci-ET)-1b_IC50
[6] = W11.8, read-out: HCV-Replicon-ELISA-1a IC50
[7] = Huh-7, read-out: HCV-Replicon-(Luci-ET) 1b_IC50

Structure (SMILES) | pIC50 [1, 4] | pIC50 [2, 5] | CC50 at 72 h [3] [µM] | pIC50 [1, 6] | pIC50 [2, 7]
CC(C)N1CCCC[C@H](N(c2cc(C#CC(C)(C)C)sc2C(=O)O)C(=O)[C@H]2CC[C@H](C)CC2)C1=O [Compound 146, (S)-5-(3,3-Dimethylbut-1-ynyl)-3-((trans)-4-methyl-N-(1-isopropyl-2-oxoazepan-3-yl)cyclohexanecarboxamido)thiophene-2-carboxylic acid] | > 7.00 | > 7.00 | 10 to 100 | – | –
CN(C)C(=O)CN(c1cc(C#CC(C)(C)C)sc1C(=O)O)C(=O)[C@H]1CC[C@H](C)CC1 [Compound 5, 5-(3,3-Dimethyl-but-1-ynyl)-3-[dimethylcarbamoylmethyl-(trans-4-methyl-cyclohexanecarbonyl)-amino]-thiophene-2-carboxylic acid] | – | – | > 100 | > 7.00 | > 7.00
CCN1CCCC[C@H](N(c2cc(C#CC(C)(C)C)sc2C(=O)O)C(=O)[C@H]2CC[C@H](C)CC2)C1=O [Compound 134, (S)-5-(3,3-Dimethylbut-1-ynyl)-3-((trans)-4-methyl-N-(1-ethyl-2-oxoazepan-3-yl)cyclohexanecarboxamido)thiophene-2-carboxylic acid] | > 7.00 | > 7.00 | 10 to 100 | – | –
COC[C@@H](C(=O)N1CCOCC1)N(C(=O)C1CCC(C)CC1)c1cc(C#CC(C)(C)C)sc1C(=O)O (stereo partly shown) [Compound 23] | – | – | > 100 | > 7.00 | > 7.00
COCC(C(=O)N(C)C)N(C(=O)C1CCC(C)CC1)c1cc(C#CC(C)(C)C)sc1C(=O)O (single isomer, unassigned) [Compound 21] | – | – | > 100 | > 7.00 | > 7.00
CC[C@@H](C(=O)N1C[C@@H]2C[C@H]1CO2)N(c1cc(C#CC(C)(C)C)sc1C(=O)O)C(=O)[C@H]1CC[C@H](C)CC1 [Compound 94] | – | – | > 100 | > 7.00 | > 7.00
COCC[C@@H](C(=O)N1CCOCC1)N(C(=O)C1CCC(C)CC1)c1cc(C#CC(C)(C)C)sc1C(=O)O (stereo partly shown) [Compound 61] | – | – | > 100 | > 7.00 | > 7.00
CCN1CC[C@H](N(c2cc(C#CC(C)(C)C)sc2C(=O)O)C(=O)[C@H]2CC[C@H](C)CC2)C1=O [Compound 131, 5-(3,3-dimethylbut-1-ynyl)-3-[[(3S)-1-ethyl-2-oxo-pyrrolidin-3-yl]-(trans-4-methylcyclohexanecarbonyl)amino]thiophene-2-carboxylic acid] | > 7.00 | > 7.00 | > 100 | – | –
COCC(C(=O)N(C)C)N(C(=O)C1CCC(C)CC1)c1cc(C#CC(C)C)sc1C(=O)O (stereo not shown) [Compound 16] | – | – | > 100 | > 7.00 | > 7.00
CN1CCC[C@H](N(C(=O)c2ccc(Cl)cc2Cl)c2cc(C#CC(C)(C)C)sc2C(=O)O)C1=O [Compound 140, (S)-5-(3,3-Dimethylbut-1-ynyl)-3-[(2,4-dichlorobenzoyl)-N-(1-methyl-2-oxopiperidin-3-yl)amino]-thiophene-2-carboxylic acid] | > 7.00 | > 7.00 | > 100 | – | –
COC[C@@H](C(=O)N1CCCC1)N(C(=O)C1CCC(C)CC1)c1cc(C#CC(C)(C)C)sc1C(=O)O (stereo partly shown) [Compound 35] | – | – | 10 to 100 | > 7.00 | > 7.00
CN(C)C(=O)CN(C(=O)c1ccc(Cl)cc1Cl)c1cc(C#CC(C)(C)C)sc1C(=O)O [Compound 4, 3-[(2,4-Dichloro-benzoyl)-dimethylcarbamoylmethyl-amino]-5-(3,3-dimethyl-but-1-ynyl)-thiophene-2-carboxylic acid] | – | – | 10 to 100 | 6.00 to 7.00 | > 7.00
CC(C)(C)C#Cc1cc(N(CC(=O)N2CCOCC2)C(=O)c2ccc(Cl)cc2Cl)c(C(=O)O)s1 [Compound 124, 3-[(2,4-dichlorobenzoyl)-(2-morpholino-2-oxo-ethyl)amino]-5-(3,3-dimethylbut-1-ynyl)thiophene-2-carboxylic acid] | > 7.00 | > 7.00 | > 100 | – | –
CC[C@@H](C(=O)N1CCOCC1)N(C(=O)c1ccc(Cl)cc1Cl)c1cc(C#CC(C)(C)C)sc1C(=O)O [Compound 143, (S)-5-(3,3-Dimethylbut-1-ynyl)-3-[(2,4-dichlorobenzoyl)-[1-(morpholine-4-carbonyl)propyl]amino]-thiophene-2-carboxylic acid] | > 7.00 | > 7.00 | 10 to 100 | – | –
CC[C@@H](C(=O)N1CC(OC)C1)N(c1cc(C#CC(C)(C)C)sc1C(=O)O)C(=O)[C@H]1CC[C@H](C)CC1 [Compound 79] | – | – | > 100 | > 7.00 | > 7.00
CC(C)(C)C#Cc1cc(N(C(=O)[C@H]2CC[C@H](C)CC2)[C@H]2CCN(CCO)C2=O)c(C(=O)O)s1 [Compound 139, 5-(3,3-Dimethylbut-1-ynyl)-3-[[(3S)-1-(2-hydroxyethyl)-2-oxo-pyrrolidin-3-yl]-(trans-4-methylcyclohexanecarbonyl)amino]thiophene-2-carboxylic acid] | > 7.00 | > 7.00 | > 100 | – | –
CC1CCC(C(=O)N(c2cc(C#CC(C)(C)C)sc2C(=O)O)[C@H]2CCN(C)C2=O)CC1 (single isomer, unassigned) [Compound 91] | – | – | > 100 | > 7.00 | > 7.00
CC1CCC(C(=O)N(CCC(=O)N(C)C)c2cc(C#CC(C)(C)C)sc2C(=O)O)CC1 (stereo not shown) [Compound 98] | – | – | > 100 | 6.00 to 7.00 | > 7.00
CC(C)(C)C#Cc1cc(N(CC(=O)N2CCCC2)C(=O)[C@H]2CC[C@H](C)CC2)c(C(=O)O)s1 [Compound 6, 5-(3,3-Dimethyl-but-1-ynyl)-3-[(trans-4-methyl-cyclohexanecarbonyl)-(2-oxo-2-pyrrolidin-1-yl-ethyl)-amino]-thiophene-2-carboxylic acid] | – | – | > 100 | > 7.00 | > 7.00
C[C@@H](CN(c1cc(C#CC(C)(C)C)sc1C(=O)O)C(=O)[C@H]1CC[C@H](C)CC1)C(=O)N1CCOCC1 [Compound 108, 5-(3,3-Dimethylbut-1-ynyl)-3-[(trans-4-methylcyclohexanecarbonyl)-[(2S)-2-methyl-3-morpholino-3-oxo-propyl]amino]thiophene-2-carboxylic acid] | – | – | > 100 | > 7.00 | > 7.00
CN1CCCC[C@H](N(C(=O)c2ccc(Cl)cc2Cl)c2cc(C#CC(C)(C)C)sc2C(=O)O)C1=O [Compound 137, (S)-5-(3,3-Dimethylbut-1-ynyl)-3-[(2,4-dichlorobenzoyl)-N-(1-methyl-2-oxoazepan-3-yl)amino]-thiophene-2-carboxylic acid] | > 7.00 | > 7.00 | > 100 | – | –
CC(C)(C)C#Cc1cc(N(C(=O)[C@H]2CC[C@H](C)CC2)[C@H]2CCN([C@H]3CCOC3)C2=O)c(C(=O)O)s1 [Compound 156, 5-(3,3-Dimethylbut-1-ynyl)-3-[(trans-4-methylcyclohexanecaronyl)-[(3S)-2-oxo-1-[(3S)-tetrahydrofuran-3-yl]pyrrolidin-3-yl]amino]thiophene-2-carboxylic acid] | 8.40 | > 7.00 | – | – | –
CC(C)C#Cc1cc(N(CC(=O)N(C)C)C(=O)C2CCC(C)CC2)c(C(=O)O)s1 (stereo not shown) [Compound 67] | – | – | > 100 | – | > 7.00
